Substitutions are numbered along the chain they refer to. Read-outs that look alike come from different tables or passages of the source.
What was measured:
[1] = biological target: T1, COX-2 (Homo sapiens, UniProt P35354); assay: TLC assay of cyclooxygenase inhibition, purified human COX-2; assay type: biochemical
T1 sequence (P35354 18-604): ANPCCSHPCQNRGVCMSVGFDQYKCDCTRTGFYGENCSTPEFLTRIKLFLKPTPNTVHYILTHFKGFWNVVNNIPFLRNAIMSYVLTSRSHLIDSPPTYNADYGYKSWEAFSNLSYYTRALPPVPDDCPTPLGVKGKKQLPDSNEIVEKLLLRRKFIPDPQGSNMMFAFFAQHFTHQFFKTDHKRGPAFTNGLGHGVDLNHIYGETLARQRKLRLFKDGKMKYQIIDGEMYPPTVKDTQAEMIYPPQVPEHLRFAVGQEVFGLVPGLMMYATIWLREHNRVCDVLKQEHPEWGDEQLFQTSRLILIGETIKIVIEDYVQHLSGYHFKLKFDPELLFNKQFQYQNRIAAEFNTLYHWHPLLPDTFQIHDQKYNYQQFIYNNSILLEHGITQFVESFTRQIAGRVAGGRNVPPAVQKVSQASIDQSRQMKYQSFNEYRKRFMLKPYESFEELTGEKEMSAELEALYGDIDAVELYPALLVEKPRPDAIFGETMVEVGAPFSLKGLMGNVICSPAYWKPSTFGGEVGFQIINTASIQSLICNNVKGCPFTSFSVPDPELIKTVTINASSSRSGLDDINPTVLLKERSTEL

[2] = test system: rat foot pad edema; assay: Rat foot pad edema model (carrageenan); assay type: in vivo, male Sprague-Dawley rats; details: 2 mg/kg orally, corrected for 0.1 mL injection volume
Procedure: Rats were injected with carrageenan, which triggers a rapid edema (swelling) within 3 hours that can be quantitatively measured by volume displacement.
In these experiments, the carrageenan that was injected was in 0.1 mL of aqueous saline so that 0.1 mL volume increase was due to the injection alone. […] More specifically, male Sprague-Dawley rats (150 g) received a subplantar injection of carrageenan (0.1 mL of a 1% suspension of carrageenan in sterile aqueous saline) into the right hind footpad while mildly anesthetized with methoxyflurane. […] The ipsilateral footpad volume (mL) was measured with a water displacement plethysmometer at time = 3 hours post-injection and compared to the time = 0 pre-injection paw volume for edema calculations.

[3] = biological target: T2, murine COX-2 mutant Tyr341Ala (Mus musculus, UniProt Q05769, Y341A)
T2 sequence (Q05769 18-604 Y341A): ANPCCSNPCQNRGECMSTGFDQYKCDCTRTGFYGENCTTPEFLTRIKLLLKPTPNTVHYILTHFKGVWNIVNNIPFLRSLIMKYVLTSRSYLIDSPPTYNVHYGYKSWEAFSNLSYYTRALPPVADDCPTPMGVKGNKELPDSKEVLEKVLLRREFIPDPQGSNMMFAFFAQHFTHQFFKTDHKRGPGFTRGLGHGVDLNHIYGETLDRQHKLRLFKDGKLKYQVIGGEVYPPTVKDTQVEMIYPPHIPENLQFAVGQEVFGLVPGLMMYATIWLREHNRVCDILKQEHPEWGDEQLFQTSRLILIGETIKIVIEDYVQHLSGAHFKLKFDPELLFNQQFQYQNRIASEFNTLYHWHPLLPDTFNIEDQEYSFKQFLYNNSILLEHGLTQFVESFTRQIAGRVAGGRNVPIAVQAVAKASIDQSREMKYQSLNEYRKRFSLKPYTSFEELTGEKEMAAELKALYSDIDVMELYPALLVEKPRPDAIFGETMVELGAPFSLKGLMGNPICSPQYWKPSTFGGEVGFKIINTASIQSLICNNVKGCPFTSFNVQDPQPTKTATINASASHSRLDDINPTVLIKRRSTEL

[4] = biological target: T3, Val509lleArg499HisVal420lle mutant (VRV mutant) (Mus musculus, UniProt Q05769, R499H/V420I/V509I)
T3 sequence (Q05769 18-604 V420I/R499H/V509I): T2 sequence (Q05769 18-604 Y341A) with A324Y, V403I, R482H, V492I

[5] = biological target: T4, ovine COX-1 (Ovis aries, UniProt P05979); assay: TLC assay of cyclooxygenase inhibition, purified ovine COX-1; assay type: biochemical; details: Table 2, amide derivatives; ovine COX-1 (44 nM), 20 min, 1-14C-AA at 37°C for 30 sec
T4 construct: COX-1 was purified from ram seminal vesicles obtained from Oxford Biomedical Research, Inc; tissue Oxford Biomedical Research, Inc. (Oxford, Michigan); host or cells: ram seminal vesicles
T4 sequence (P05979 25-600): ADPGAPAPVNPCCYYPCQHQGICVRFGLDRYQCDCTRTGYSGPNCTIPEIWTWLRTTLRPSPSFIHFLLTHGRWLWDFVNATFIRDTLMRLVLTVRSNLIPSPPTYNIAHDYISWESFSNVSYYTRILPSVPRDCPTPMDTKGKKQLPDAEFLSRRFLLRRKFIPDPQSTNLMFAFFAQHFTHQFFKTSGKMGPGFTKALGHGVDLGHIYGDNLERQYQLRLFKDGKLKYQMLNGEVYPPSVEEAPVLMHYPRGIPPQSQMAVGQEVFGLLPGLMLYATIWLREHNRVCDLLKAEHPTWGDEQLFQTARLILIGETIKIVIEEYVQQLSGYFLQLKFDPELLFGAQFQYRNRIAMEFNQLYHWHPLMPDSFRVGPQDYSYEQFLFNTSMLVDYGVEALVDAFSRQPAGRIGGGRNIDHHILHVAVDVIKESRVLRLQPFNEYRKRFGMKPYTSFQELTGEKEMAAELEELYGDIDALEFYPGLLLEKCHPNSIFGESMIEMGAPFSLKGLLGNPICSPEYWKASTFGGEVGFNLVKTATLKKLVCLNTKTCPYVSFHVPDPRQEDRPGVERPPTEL

[6] = biological target: T1, COX-2; details: background / literature statement; cited from earlier work
[7] = biological target: COX-1 (Homo sapiens, UniProt P23219); details: background / literature statement; cited from earlier work
Sequence of COX-1 (P23219 24-599): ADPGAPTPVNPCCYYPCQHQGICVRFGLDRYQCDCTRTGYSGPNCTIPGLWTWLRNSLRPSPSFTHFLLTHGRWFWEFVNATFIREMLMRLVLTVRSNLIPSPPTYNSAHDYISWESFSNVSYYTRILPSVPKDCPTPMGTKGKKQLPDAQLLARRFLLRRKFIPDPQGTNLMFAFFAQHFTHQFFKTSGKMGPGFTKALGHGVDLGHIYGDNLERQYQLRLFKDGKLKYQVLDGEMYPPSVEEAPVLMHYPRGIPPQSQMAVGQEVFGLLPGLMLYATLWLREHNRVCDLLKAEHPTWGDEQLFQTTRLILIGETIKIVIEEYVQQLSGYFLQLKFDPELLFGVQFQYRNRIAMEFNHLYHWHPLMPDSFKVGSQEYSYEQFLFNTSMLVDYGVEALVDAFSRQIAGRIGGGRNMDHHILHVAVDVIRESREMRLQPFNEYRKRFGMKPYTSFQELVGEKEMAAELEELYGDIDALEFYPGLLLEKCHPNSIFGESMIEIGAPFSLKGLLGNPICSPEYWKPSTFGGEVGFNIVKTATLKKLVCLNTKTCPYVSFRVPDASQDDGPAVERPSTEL

## Cc1nc(-c2ccccc2)c(-c2ccc(S(N)(=O)=O)cc2)o1 [2-methyl-4-phenyl-5-sulfonamidophenyl oxazole, reference compound]
[1]; Table 1, ester derivatives, Ratio of IC50 (COX-1):IC50 (COX-2)
  Selectivity: > 1100

## COc1ccc2c(c1)c(CC(=O)O)c(C)n2C(=O)c1ccc(Cl)cc1 [Compound 1, Indomethacin]
[2]
  reduction in inflammation: comparable reduction in inflammation

## COc1ccc2c(c1)c(CC(=O)OCCC1CCCCC1)c(C)n2C(=O)c1ccc(Cl)cc1 [Compound 10, Indomethacin cyclohexylethyl ester]
[1]; tertiary amides
  IC value at which measurement of COX-2 inhibition was stopped: 33

## COc1ccc2c(c1)c(CC(=O)NCCc1ccccc1)c(C)n2C(=O)c1ccc(Cl)cc1 [Compound 38, Indomethacin-N-(2-phenethyl) amide]
[3]
  inhibition of Tyr341Ala mutant: resistant to inhibition
[4]
  inhibition of triple mutant VRV: resistant to inhibition

## COc1ccc2c(c1)c(CC(=O)Nc1ccc(F)cc1)c(C)n2C(=O)c1ccc(Cl)cc1 [Compound 39, Indomethacin-N-(4-fluorophenyl) amide]
[5]
  IC50: > 66 µM

## COc1ccc2c(c1)c(CC(=O)Nc1cccnc1)c(C)n2C(=O)c1ccc(Cl)cc1 [Compound 47, Indomethacin-N-(3-pyridyl) amide]
[5]
  IC50: > 66 µM

## CCn1nccc1NC(=O)Cc1c(C)n(C(=O)c2ccc(Cl)cc2)c2ccc(OC)cc12 [Compound 49, Indomethacin-N-5-((1-ethyl)pyrazolo) amide]
[1]
  IC50: 0.71 µM
  Selectivity: > 94

## CC1=C(CC(=O)O)c2cc(F)ccc2/C1=C\c1ccc(S(C)(=O)=O)cc1 [sulindac sulfone]
[6]
  inhibition of COX-2 (in words): does not inhibit
[7]
  inhibition of COX-1 (in words): does not inhibit

## Indomethacin 3-pyridyl ester [Compound 24]
[1]
  Selectivity: 50
